Values of other authors as cited in PubChem BioAssay AID1259409 (Chemical Carcinogenesis Research Information System (CCRIS), 2018).

Test system: rodent chemically induced tumor inhibition, incidence and multiplicity
Experiment: CCRIS tumor inhibitor studies
Settings: Dose [Inhibitor]: 0, Route [Inhibitor]: ORAL, Species: RAT, Promoter: NONE USED

For `N#C[Se]Cc1ccc(C[Se]C#N)cc1`, the “tumour outcome (control, treated, inhibition, significance)” value (Carcinogen: 7,12-DIMETHYLBENZ[A]ANTHRACENE, 57-97-6, 5 PPM (AS SELENIUM) IN DIET BEGINNING 2 WK PRIOR TO CARCINOGEN DOSE AND CONTINUING FOR 1 WK POST CARCINOGEN DOSE (STU, Strain/Sex: SPRAGUE-DAWLEY/FEMALE, Target Tissue: Type of Lesion: MAMMARY GLAND: ADENOCARCINOMA, Dose [Carcinogen]: 10 MG ONCE AT 55 D OF AGE) is given as 22/25 (88%), 15/25 (60%), 32%, p<0.05, the “tumour outcome (control, treated, inhibition, significance)” value (Carcinogen: 7,12-DIMETHYLBENZ[A]ANTHRACENE, 57-97-6, 5 PPM (AS SELENIUM) IN DIET BEGINNING 2 WK PRIOR TO CARCINOGEN DOSE AND CONTINUING FOR DURATION OF STUDY (STUDY DURAT, Strain/Sex: SPRAGUE-DAWLEY/FEMALE, Target Tissue: Type of Lesion: MAMMARY GLAND: ADENOCARCINOMA, Dose [Carcinogen]: 10 MG ONCE AT 55 D OF AGE) is given as 88%, 52%, 41%, p<0.05 and the “tumour outcome (control, treated, inhibition, significance)” value (Carcinogen: 7,12-DIMETHYLBENZ[A]ANTHRACENE, 57-97-6, 10 PPM (AS SELENIUM) IN DIET BEGINNING 1 WK POST CARCINOGEN DOSE AND CONTINUING FOR 25 WK (STUDY DURATION: 25 WK), Strain/Sex: SPRAGUE-DAWLEY/FEMALE, Target Tissue: Type of Lesion: MAMMARY GLAND: ADENOCARCINOMA, Dose [Carcinogen]: 10 MG ONCE AT 55 D OF AGE) is given as 22/25 (88%), 14/25 (56%), 36%, p<0.05. The “tumour outcome (control, treated, inhibition, significance)” value (Carcinogen: 7,12-DIMETHYLBENZ[A]ANTHRACENE, 57-97-6, 10 PPM (AS SELENIUM) IN DIET BEGINNING 2 WK PRIOR TO CARCINOGEN DOSE AND CONTINUING FOR 1 WK POST CARCINOGEN DOSE (ST, Strain/Sex: SPRAGUE-DAWLEY/FEMALE, Target Tissue: Type of Lesion: MAMMARY GLAND: ADENOCARCINOMA, Dose [Carcinogen]: 10 MG ONCE AT 55 D OF AGE) was 22/25 (88%), 12/25 (48%), 45%, p<0.05, the “tumour outcome (control, treated, inhibition, significance)” value (Carcinogen: 7,12-DIMETHYLBENZ[A]ANTHRACENE, 57-97-6, 10 PPM (AS SELENIUM) IN DIET BEGINNING 2 WK PRIOR TO CARCINOGEN DOSE AND CONTINUING FOR DURATION OF STUDY (STUDY DURA, Strain/Sex: SPRAGUE-DAWLEY/FEMALE, Target Tissue: Type of Lesion: MAMMARY GLAND: ADENOCARCINOMA, Dose [Carcinogen]: 10 MG ONCE AT 55 D OF AGE) was 88%, 40%, 55%, p<0.05 and the “tumour outcome (control, treated, inhibition, significance)” value (Carcinogen: 7,12-DIMETHYLBENZ[A]ANTHRACENE, 57-97-6, 15 PPM (AS SELENIUM) IN DIET BEGINNING 1 WK POST CARCINOGEN DOSE AND CONTINUING FOR 25 WK (STUDY DURATION: 25 WK), Strain/Sex: SPRAGUE-DAWLEY/FEMALE, Target Tissue: Type of Lesion: MAMMARY GLAND: ADENOCARCINOMA, Dose [Carcinogen]: 10 MG ONCE AT 55 D OF AGE) was 22/25 (88%), 12/25 (48%), 45%, p<0.05. The “tumour outcome (control, treated, inhibition, significance)” value (Carcinogen: 7,12-DIMETHYLBENZ[A]ANTHRACENE, 57-97-6, 15 PPM (AS SELENIUM) IN DIET BEGINNING 2 WK PRIOR TO CARCINOGEN DOSE AND CONTINUING FOR 1 WK POST CARCINOGEN DOSE (ST, Strain/Sex: SPRAGUE-DAWLEY/FEMALE, Target Tissue: Type of Lesion: MAMMARY GLAND: ADENOCARCINOMA, Dose [Carcinogen]: 10 MG ONCE AT 55 D OF AGE) was 22/25 (88%), 6/25 (24%), 73%, p<0.05, the “tumour outcome (control, treated, inhibition, significance)” value (Carcinogen: 7,12-DIMETHYLBENZ[A]ANTHRACENE, 57-97-6, 80 PPM IN HIGH FAT DIET FOR 2 WK BEGINNING 1 WK PRIOR TO CARCINOGEN DOSE (STUDY DURATION: 17 WK), Strain/Sex: SPRAGUE-DAWLEY/FEMALE, Target Tissue: Type of Lesion: MAMMARY GLAND: TUMOR, Dose [Carcinogen]: 5 MG IN 0.2 ML OLIVE OIL ONCE) was 22/25 (88%), 5/25 (20%), 77%, p<0.01 and the “tumour outcome (control, treated, inhibition, significance)” value (Carcinogen: AZOXYMETHANE, 25843-45-2, 20 PPM IN HIGH-FAT DIET BEGINNING 2 WK PRIOR TO CARCINOGEN TREATMENT AND CONTINUING FOR 3 D POST CARCINOGEN TREATMENT, Strain/Sex: F344/MALE, Target Tissue: Type of Lesion: COLON: ADENOCARCINOMA, Dose [Carcinogen]: 15 MG/KG BW/WK FOR 2 WK) was 80%, 63%, 21%, not significant. For the same compound, the “tumour outcome (control, treated, inhibition, significance)” value (Carcinogen: AZOXYMETHANE, 25843-45-2, 40 PPM IN HIGH-FAT DIET BEGINNING 2 WK PRIOR TO CARCINOGEN TREATMENT AND CONTINUING FOR 3 D POST CARCINOGEN TREATMENT, Strain/Sex: F344/MALE, Target Tissue: Type of Lesion: COLON: ADENOCARCINOMA, Dose [Carcinogen]: 15 MG/KG BW/WK FOR 2 WK) was 80%, 50%, 38%, p<0.05 and the “tumour outcome (control, treated, inhibition, significance)” value (Carcinogen: AZOXYMETHANE, 25843-45-2, 40 PPM IN HIGH-FAT DIET FOR DURATION OF STUDY BEGINNING 3 D POST CARCINOGEN TREATMENT (STUDY DURATION: 36 WK), Strain/Sex: F344/MALE, Target Tissue: Type of Lesion: COLON: ADENOCARCINOMA, Dose [Carcinogen]: 15 MG/KG BW/WK FOR 2 WK) was 80%, 37%, 54%, p<0.05.
